Publication PMC9181982, “Biphenyl Ether Analogs Containing Pomalidomide as Small-Molecule Inhibitors of the Programmed Cell Death-1/Programmed Cell Death-Ligand 1 Interaction” (Molecules, 2022)

Columns and labels:
PD-1/PD-L1 complex = target: T1, PD-1/PD-L1 complex (Homo sapiens, UniProt Q9NZQ7); assay: HTRF (homogeneous time-resolved fluorescence) PD-1/PD-L1 binding assay (Cis-Bio); conditions: for inhibition at 0.5 µM / HTRF: Percentage of the Dissociated PD-1/PD-L1 Complex, 0.5 µM Ligand Conc.: 0.5 µM ligand; for inhibition at 0.5 µM / inhibition at 5 µM / HTRF: Percentage of the Dissociated PD-1/PD-L1 Complex, 0.5 µM Ligand Conc. / HTRF: Percentage of the Dissociated PD-1/PD-L1 Complex, 5 µM Ligand Conc.: 5 nM hPD-L1, 50 nM hPD-1; for inhibition at 0.5 µM: read-out: HTRF: Percentage of the Dissociated PD-1/PD-L1 Complex, 0.5 µM Ligand Conc.; for inhibition at 5 µM / HTRF: Percentage of the Dissociated PD-1/PD-L1 Complex, 5 µM Ligand Conc.: 5 µM ligand; for inhibition at 5 µM: read-out: HTRF: Percentage of the Dissociated PD-1/PD-L1 Complex, 5 µM Ligand Conc.
T1 construct: purchased Cis-Bio
T1 sequence (Q9NZQ7 19-238 limits assumed, one chain of several): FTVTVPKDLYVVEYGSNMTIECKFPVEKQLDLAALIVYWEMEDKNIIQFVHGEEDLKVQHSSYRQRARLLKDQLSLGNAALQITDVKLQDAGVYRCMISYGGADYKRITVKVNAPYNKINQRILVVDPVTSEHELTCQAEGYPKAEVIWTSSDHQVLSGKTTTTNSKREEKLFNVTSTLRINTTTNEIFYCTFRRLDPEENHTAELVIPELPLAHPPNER
Method: To validate the activity toward PD-L1 of our compounds, we carried out an HTRF (homogeneous time-resolved fluorescence) experiment at two concentrations of the ligand (5 µM and 0.5 µM) (Table 1).
HTRF was carried out using a certified Cis-Bio assay according to the manufacturer’s guidelines. The experiments were carried out at 5 nM of h-L1 and 50 nM of hPD-1 in the final formulation at the 20 µL final volume in the well. To determine the half maximal inhibitory concentrations (IC50) of the tested compounds, the measurements were carried out on two individual dilution series unless stated otherwise. After mixing all the components according to the Cis-Bio protocol, the plate was left for 2 h incubation at room temperature followed by the TR-FRET measurement on a Tecan Spark 20M. […] The collected data was background-subtracted from the negative control, normalized on the positive control, averaged, and fitted with the normalized Hill’s equation to determine the IC50 value using Mathematica 12 (Princeton, NJ, USA).

[1] = tested on: PD-1/PD-L1 blockade, Jurkat effector cells / CHO/TCRAct/PD-L1 cells; assay: Immune checkpoint blockade (ICB) assay (Promega): Jurkat ECs co-cultured with CHO/TCRAct/PD-L1 cells, NFAT luciferase readout; type: cell-based, human; conditions: for Promega Assay (active / not active): cell-based PD-1/PD-L1 blockade bioassay; for Activation of Jurkat ECs in the ICB assay: 6 h co-culture, fold induction vs control
Method: In order to explore the bioactivity of the synthesized compounds, a well-recognized immune checkpoint blockade (ICB) assay was performed. In the assay, artificial T cells, the Jurkat effector cells (Jurkat ECs), i.e., the Jurkat T cells overexpressing PD-1 and luciferase-coding gene under the control of the TCR-inducible NFAT response element, are contacted with artificial antigen-presenting CHO/TCRAct/PD-L1 cells, as illustrated in [31]. The latter is the CHO cells equipped with the TCR activator molecule, which delivers activation of Jurkat ECs, and also the PD-L1 protein, which provides a negative signal towards the activation of Jurkat ECs. Upon the blockade of the PD-1/PD-L1 interaction, activation of Jurkat ECs is increased, as we have shown before for several classes of therapeutic antibodies and small molecules.
The human PD-L1-expressing CHO-K1 cells overexpressing TCR activator (CHO/TCRAct/PD-L1) cells and Jurkat ECs T cells overexpressing PD-1 and carrying a luciferase reporter gene under the control of the Nuclear Factor of Activated T cells Response Element (NFAT-RE) were obtained from Promega and cultured in an RPMI-1640 medium (Biowest, Nuaillé, France) supplemented with 10% fetal bovine serum (FBS, Biowest, Nuaillé, France) and […] L-glutamine (Biowest, Nuaillé, France). G418 (250 µg/mL, InvivoGen, San Diego, CA, USA) and Hygromycin B Gold (50 µg/mL, InvivoGen, San Diego, CA, USA) were also added to the culture medium as selection antibiotics. CAKI 2, LNCap, PC-3, and MDA-MB-231 cells were purchased from the European Collection of Authenticated Cell Cultures (ECACC) and cultured according to the provided protocol.
For the analysis of biological activity of the analyzed compounds, an immune checkpoint blockade (ICB) assay was performed. For this, the culture of Jurkat effector cells (Jurkat-ECs) and […] was carried out. The assay was performed according to the protocol described in our previous works. All the experiments were performed three times as independent experiments.
Figure 2 Bioactivity of the indicated compounds. (A,B) The activity was monitored with a cell-based immune checkpoint blockade (ICB) assay. Jurkat ECs were contacted with pre-seeded CHO/TCRAct/PD-L1 cells in the presence of the indicated concentrations of the compounds (A) or durvalumab (B) as a positive control. The cells were co-cultured for 6 h and the luminescence signal was measured following the addition of the Bio-Glo substrate. The graphs show fold induction calculated versus either DMSO-treated (for small molecules) or untreated (for durvalumab) control (ctrl) cells. The results are mean ± SD from three independent experiments. […] (C) Analysis of the expression of PD-L1 in four human cancer cell lines compared to PD-L1-overexpressing CHO/TCRAct/PD-L1 cells. (D) Analysis of the expression of PD-L1 in MDA-MB-231 cells treated with either 4 or 5 compounds for 6 or 24 h.

PD-L1 protein = target: T2, PD-L1 protein (Homo sapiens, UniProt Q9NZQ7); assay: 1H NMR binding analysis, PD-L1 protein titrated with ligand
T2 construct: PD-L1 gene (amino acids 18–239); made in house; host or cells: E. coli BL21
T2 sequence (Q9NZQ7 18-239): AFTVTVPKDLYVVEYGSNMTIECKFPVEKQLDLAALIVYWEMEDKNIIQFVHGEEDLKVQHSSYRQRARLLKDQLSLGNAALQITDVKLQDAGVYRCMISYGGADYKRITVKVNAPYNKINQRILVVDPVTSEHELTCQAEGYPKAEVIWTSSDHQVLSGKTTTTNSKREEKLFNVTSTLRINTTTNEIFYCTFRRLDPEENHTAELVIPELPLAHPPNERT
Method: Apart from the HTRF assay, we performed the NMR [33, 34] binding analysis by recording the ^1H spectrum of the PD-L1 protein titrated with compound 4 (Figure 1).
The E. coli strain BL21 was transformed with a pET-21b plasmid carrying the PD-L1 gene (amino acids 18–239). The bacteria were cultured in LB at 37 °C until OD600nm of 0, 6 when the recombinant protein production was induced with 1 mM IPTG. The protein production continued overnight. The inclusion bodies were collected by centrifugation, washed twice with 50 mM Tris HCl, pH 8.0, containing 200 mM NaCl, 10 mM EDTA, 10 mM 2-mercaptoethanol, and 0.5% Triton X-100, followed by a single wash with the same buffer but with no Triton X-100. The washed inclusion bodies were resuspended overnight in 50 mM Tris HCl, pH 8.0, 6 M GuHCl, 200 mM NaCl, and 10 mM 2-mercaptoethanol and clarified with centrifugation. Refolding of PD-L1 was performed by dropwise dilution into 0.1 M Tris HCl, pH 8.0, containing 1 M L-arginine hydrochloride, 0.25 mM oxidized glutathione, and 0.25 mM reduced glutathione. The refolded protein was dialyzed three times against 10 mM Tris HCl, pH 8.0, containing 20 mM NaCl and purified by size exclusion chromatography using Superdex 75 and a dialysis buffer. The quality of the refolded protein was evaluated by SDS-PAGE and NMR.
NMR spectra were recorded in PBS, pH 7.4, containing 10% (v/v) of D2O added to the samples to provide the lock signal. Water suppression was carried out using the WATERGATE sequence. All the spectra were recorded at 300 K using a Bruker Avance 600 MHz spectrometer with the Cryo-Platform. The NMR spectrum was recorded at three different ligand/protein ratios from 0 to 10. The samples were prepared by adding small amounts of a 50 mM ligand stock solution in DMSO to the protein solution (0.20 mL) of the PD-L1 fragment at a concentration of 0.14 mM. The acquisition parameters for each spectrum were as follows: size of FID32768, number of scans: 32. The spectra were visualized using TopSpin 4.0.2. (Bruker, Billerica, MA, USA)

Row | Compound | inhibition at 0.5 µM (PD-1/PD-L1 complex) [%] | inhibition at 5 µM (PD-1/PD-L1 complex) [%] | Promega Assay (active / not active) [1] | further results
1 | COc1nc(OCc2cccc(-c3ccccc3)c2C)ccc1C(NCCCNc1cccc2c1C(=O)N(C1CCC(=O)NC1=O)C2=O)c1nnnn1C(C)(C)C (stereo not drawn) [compound 7, 4-((3-(((1-(tert-butyl)-1H-tetrazol-5-yl)(2-methoxy-6-((2-methyl-[1,1′-biphenyl]-3-yl)methoxy)pyridin-3-yl)methyl)amino)propyl)amino)-2-(2,6-dioxopiperidin-3-yl)isoindoline-1,3-dione] | 0 | 35.2 | Not active | 
2 | Cc1c(COc2cc(OCc3cccc(C#N)c3)c(CN3C[C@H](O)C[C@@H]3C(=O)NCCCNc3cccc4c3C(=O)N(C3CCC(=O)NC3=O)C4=O)cc2Cl)cccc1-c1ccc2c(c1)OCCO2 (stereo partly drawn) [compound 2, (2R,4R)-1-(5-chloro-2-((3-cyanobenzyl)oxy)-4-((3-(2,3-dihydrobenzo[b][1,4]dioxin-6-yl)-2-methylbenzyl)oxy)benzyl)-N-(3-((2-(2,6-dioxopiperidin-3-yl)-1,3-dioxoisoindolin-4yl)amino)propyl)-4-hydroxypyrrolidine-2-carboxamide] | 3.9 | 71.7 | Not active | 
3 | durvalumab |  |  |  | Activation of Jurkat ECs in the ICB assay [1]: increase the activation of Jurkat ECs
4 | Cc1c(COc2cc(OCc3cccc(C#N)c3)c(CN3C[C@H](O)C[C@@H]3C(=O)O)cc2Cl)cccc1-c1ccc2c(c1)OCCO2 [BMS-1166, reference compound] |  |  |  | HTRF: Percentage of the Dissociated PD-1/PD-L1 Complex, 0.5 µM Ligand Conc. (PD-1/PD-L1 complex): 100%; HTRF: Percentage of the Dissociated PD-1/PD-L1 Complex, 5 µM Ligand Conc. (PD-1/PD-L1 complex): 100%; Protein precipitation during NMR titration (PD-L1 protein; 1H NMR titration, compound 6 at protein–ligand ratio 1:10): not observed
5 | Cc1c(COc2cc(OCc3cccc(C#N)c3)c(CNCC3CCN(CC(=O)Nc4cccc5c4C(=O)N(C4CCC(=O)NC4=O)C5=O)CC3)cc2Cl)cccc1-c1ccc2c(c1)OCCO2 (stereo not drawn) [compound 3, 2-(4-(((5-chloro-2-((3-cyanobenzyl)oxy)-4-((3-(2,3-dihydrobenzo[b][1,4]dioxin-6-yl)-2-methylbenzyl)oxy)benzyl)amino)methyl)piperidin-1-yl)-N-(2-(2,6-dioxopiperidin-3-yl)-1,3-dioxoisoindolin-4-yl)acetamide] | 77.8 | 97.1 | Not active | IC50 (PD-1/PD-L1 complex; six ligand concentrations, two dilution series): 60 ± 2 nM
6 | Nc1cccc2c1C(=O)N(C1CCC(=O)NC1=O)C2=O (stereo not drawn) [pomalidomide] |  |  |  | HTRF: Percentage of the Dissociated PD-1/PD-L1 Complex, 0.5 µM Ligand Conc. (PD-1/PD-L1 complex): 11.4%; HTRF: Percentage of the Dissociated PD-1/PD-L1 Complex, 5 µM Ligand Conc. (PD-1/PD-L1 complex): 20.1%; Activation of Jurkat ECs in the ICB assay [1]: did not increase the activation of Jurkat ECs; Binding to PD-L1 by 1H NMR titration (PD-L1 protein; PBS pH 7.4, 300 K, protein–ligand ratios up to 1:10): lack of interaction
7 | COc1cc(-c2cccc(-c3ccc4c(c3)OCCO4)c2Cl)ccc1COC(=O)CCC(=O)N1CCN(c2cccc3c2C(=O)N(C2CCC(=O)NC2=O)C3=O)CC1 (stereo not drawn) [compound 10, (3′-(benzo-1,4-dioxan-6-yl)-2′-chloro-3-methoxy-[1,1′-biphenyl]-4-yl)methyl 4-(4-(2-(2,6-dioxopiperidin-3-yl)-1,3-dioxoisoindolin-4-yl)piperazin-1-yl)-4-oxobutanoate] | 29.4 | 60.6 | Not active | 
8 | Cc1c(COc2cc(OCc3cccc(C#N)c3)c(CN3C[C@H](O)C[C@@H]3C(=O)NCC3CCN(CC(=O)Nc4cccc5c4C(=O)N(C4CCC(=O)NC4=O)C5=O)CC3)cc2Cl)cccc1-c1ccc2c(c1)OCCO2 (stereo partly drawn) [compound 1, (2R,4R)-1-(5-chloro-2-((3-cyanobenzyl)oxy)-4-((3-(2,3-dihydrobenzo[b][1,4]dioxin-6-yl)-2-methylbenzyl)oxy)benzyl)-N-((1-(2-((2-(2,6-dioxopiperidin-3-yl)-1,3-dioxoisoindolin-4-yl)amino)-2-oxoethyl)piperidin-4-yl)methyl)-4-hydroxypyrrolidine-2-carboxamide] | 23.7 | 68.3 | Not active | 
9 | COc1cc(-c2cccc(-c3ccc4c(c3)OCCO4)c2Cl)ccc1COC(=O)CCCC(=O)N1CCN(c2cccc3c2C(=O)N(C2CCC(=O)NC2=O)C3=O)CC1 (stereo not drawn) [compound 11] | 26.3 | 40 | Not active | 
10 | N1-(2-(2,6-dioxopiperidin-3-yl)-1,3-dioxoisoindolin-4-yl)-N5-((6-((2-methyl-[1,1′-biphenyl]-3-yl)methoxy)-3-((1-phenylethyl)amino)imidazo [1,2-a]pyridin-2-yl)methyl)glutaramide [compound 13] |  |  | Not active | HTRF: Percentage of the Dissociated PD-1/PD-L1 Complex, 0.5 µM Ligand Conc. (PD-1/PD-L1 complex): 30.4%; HTRF: Percentage of the Dissociated PD-1/PD-L1 Complex, 5 µM Ligand Conc. (PD-1/PD-L1 complex): 31.1%
11 | Cc1c(COc2ccc3nc(CNC(=O)CCCC(=O)Nc4cccc5c4C(=O)N(C4CCC(=O)NC4=O)C5=O)c(NCc4cccc(C#N)c4)n3c2)cccc1-c1ccc(F)cc1 (stereo not drawn) [compound 12, N1-((3-((3-cyanobenzyl)amino)-6-((4′-fluoro-2-methyl-[1,1′-biphenyl]-3-yl)methoxy)imidazo [1,2-a]pyridin-2-yl)methyl)-N5-(2-(2,6-dioxopiperidin-3-yl)-1,3-dioxoisoindolin-4-yl)glutaramide] | 40.9 | 76.3 | Not active | 
